Assay results taken from patent publication US12404241B2 (Celgene Corporation, priority 2018, dated 2025).
Structures can show the parent of a compound that is named as a salt.

Biological target: T1, AR (Homo sapiens, UniProt P10275)
T1 construct: endogenous in cells; host or cells: VCaP cells
T1 sequence (P10275 1-920): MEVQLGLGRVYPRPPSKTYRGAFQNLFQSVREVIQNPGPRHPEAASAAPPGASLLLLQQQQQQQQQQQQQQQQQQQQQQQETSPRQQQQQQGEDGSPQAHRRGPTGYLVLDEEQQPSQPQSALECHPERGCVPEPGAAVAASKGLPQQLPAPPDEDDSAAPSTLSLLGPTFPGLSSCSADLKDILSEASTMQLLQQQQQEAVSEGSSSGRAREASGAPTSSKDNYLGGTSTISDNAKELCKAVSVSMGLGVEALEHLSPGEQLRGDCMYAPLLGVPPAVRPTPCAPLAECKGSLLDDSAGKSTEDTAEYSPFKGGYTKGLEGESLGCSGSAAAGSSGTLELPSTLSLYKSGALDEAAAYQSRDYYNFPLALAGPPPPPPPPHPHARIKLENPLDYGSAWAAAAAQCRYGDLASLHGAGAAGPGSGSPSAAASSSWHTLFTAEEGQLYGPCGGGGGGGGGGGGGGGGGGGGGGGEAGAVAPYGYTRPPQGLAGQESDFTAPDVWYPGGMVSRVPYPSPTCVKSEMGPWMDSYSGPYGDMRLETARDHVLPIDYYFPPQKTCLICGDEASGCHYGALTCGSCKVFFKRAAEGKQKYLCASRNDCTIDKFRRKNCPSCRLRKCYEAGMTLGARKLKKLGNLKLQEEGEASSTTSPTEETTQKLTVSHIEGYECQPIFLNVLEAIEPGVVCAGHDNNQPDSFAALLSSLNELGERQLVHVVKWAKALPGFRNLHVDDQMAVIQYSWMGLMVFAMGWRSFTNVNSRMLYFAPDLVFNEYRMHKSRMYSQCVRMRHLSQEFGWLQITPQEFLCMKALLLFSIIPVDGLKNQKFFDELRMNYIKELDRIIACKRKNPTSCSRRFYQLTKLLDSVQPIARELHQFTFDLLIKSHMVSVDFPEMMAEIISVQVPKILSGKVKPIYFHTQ
Assay: VCAP AR Degradation Assay
Assay type: cell-based
Conditions: for Y (AR degradation efficiency, % of DMSO control): class symbols *; for DC50: class symbols A-C, read-out: DC50
Outline: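 VCaP cells treated 24 h at 37 °C with a 10-point 1:3 series (top 5 μM final; 0.1% DMSO control). Lysate AR measured by sandwich ELISA, normalized to DMSO as percent of control; DC50, EC50 and lowest AR level (Y) from four-parameter logistic fit.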

Compound	Y (AR degradation efficiency, % of DMSO control)	DC50 [nM]
CCc1cc(N2C(=S)N(c3ccc(C#N)c(C(F)(F)F)c3)C(=O)C2(C)C)ccc1CCCN1C[C@@H](C)N(CC(=O)Nc2cccc(NC3CCC(=O)NC3=O)c2)[C@@H](C)C1 (stereo partly drawn) [Example 284, 2-((2R,6S)-4-(3-(4-(3-(4-cyano-3-(trifluoromethyl)phenyl)-5,5-dimethyl-4-oxo-2-thioxoimidazolidin-1-yl)-2-ethylphenyl)propyl)-2,6-dimethylpiperazin-1-yl)-N-(3-(2,6-dioxopiperidin-3-ylamino)phenyl)acetamide]	* (0<Y<=25%)	< 100
CCc1cc(N2C(=S)N(c3ccc(C#N)c(C(F)(F)F)c3)C(=O)C2(C)C)ccc1OCCN1C[C@@H](C)N(CC(=O)Nc2cc(F)cc(NC3CCC(=O)NC3=O)c2)[C@@H](C)C1 (stereo partly drawn) [Example 283, 2-((2R,6S)-4-(2-(4-(3-(4-cyano-3-(trifluoromethyl)phenyl)-5,5-dimethyl-4-oxo-2-thioxoimidazolidin-1-yl)-2-ethylphenoxy)ethyl)-2,6-dimethylpiperazin-1-yl)-N-(3-(2,6-dioxopiperidin-3-ylamino)-5-fluorophenyl)acetamide]	* (0<Y<=25%)	< 100
CCc1cc(N2C(=S)N(c3ccc(C#N)c(C(F)(F)F)c3)C(=O)C23CCCC3)ccc1OCCN1C[C@@H](C)N(CC(=O)Nc2cccc(NC3CCC(=O)NC3=O)c2)[C@@H](C)C1 (stereo partly drawn) [Example 267, 2-((2S,6R)-4-(2-(4-(3-(4-cyano-3-(trifluoromethyl)phenyl)-4-oxo-2-thioxo-1,3-diazaspiro[4.4]nonan-1-yl)-2-ethylphenoxy)ethyl)-2,6-dimethylpiperazin-1-yl)-N-(3-(2,6-dioxopiperidin-3-ylamino)phenyl)acetamide]	* (0<Y<=25%)	< 100
C[C@@H]1CN(CCOc2ccc(N3C(=S)N(c4ccc(C#N)c(Cl)c4)C(=O)C3(C)C)cc2C2CC2)C[C@H](C)N1CC(=O)Nc1cccc(NC2CCC(=O)NC2=O)c1 (stereo partly drawn) [Example 206, 2-((2S,6R)-4-(2-(4-(3-(3-chloro-4-cyanophenyl)-5,5-dimethyl-4-oxo-2-thioxoimidazolidin-1-yl)-2-cyclopropylphenoxy)ethyl)-2,6-dimethylpiperazin-1-yl)-N-(3-(2,6-dioxopiperidin-3-ylamino)phenyl)acetamide]	* (0<Y<=25%)	< 100
CC1(C)C(=O)N(c2ccc(C#N)c(C(F)(F)F)c2)C(=S)N1c1ccc(OCCN2CCN(CC(=O)Nc3cccc(NC4CCC(=O)NC4=O)c3)CC2)c(F)c1 (stereo not drawn) [Example 1, formate]	*** (35%<Y<50%)	< 100
CCc1cc(N2C(=S)N(c3ccc(C#N)c(C(F)(F)F)c3)C(=O)C2(C)C)ccc1OCCN1CCN(CC(=O)Nc2cccc(N[C@@H]3CCC(=O)NC3=O)c2)[C@H](C)C1 [Example 112, 2-((R)-4-(2-(4-(3-(4-cyano-3-(trifluoromethyl)phenyl)-5,5-dimethyl-4-oxo-2-thioxoimidazolidin-1-yl)-2-ethylphenoxy)ethyl)-2-methylpiperazin-1-yl)-N-(3-((R)-2,6-dioxopiperidin-3-ylamino)phenyl)acetamide]	* (0<Y<=25%)	< 100
CCc1cc(N2C(=S)N(c3cnc(C#N)c(C(F)(F)F)c3)C(=O)C23CCC3)ccc1OCCN1CCN(C2(C(=O)Nc3cccc(NC4CCC(=O)NC4=O)c3)CC2)CC1 (stereo not drawn) [Example 188, 1-(4-(2-(4-(7-(6-cyano-5-(trifluoromethyl)pyridin-3-yl)-8-oxo-6-thioxo-5,7-diazaspiro[3.4]octan-5-yl)-2-ethylphenoxy)ethyl)piperazin-1-yl)-N-(3-(2,6-dioxopiperidin-3-ylamino)phenyl)cyclopropanecarboxamide]	* (0<Y<=25%)	< 100
C[C@@H]1CN(CCOc2ccc(N3C(=S)N(c4ccc(C#N)c(C(F)(F)F)c4)C(=O)C3(C)C)cc2CC(F)F)CCN1CC(=O)Nc1cc(F)cc(NC2CCC(=O)NC2=O)c1 (stereo partly drawn) [Example 158, 2-((R)-4-(2-(4-(3-(4-cyano-3-(trifluoromethyl)phenyl)-5,5-dimethyl-4-oxo-2-thioxoimidazolidin-1-yl)-2-(2,2-difluoroethyl)phenoxy)ethyl)-2-methylpiperazin-1-yl)-N-(3-(2,6-dioxopiperidin-3-ylamino)-5-fluorophenyl)acetamide]	* (0<Y<=25%)	< 100
CCc1cc(N2C(=S)N(c3ccc(C#N)c(C(F)(F)F)c3)C(=O)C2(C)C)ccc1OCCN1C[C@@H](C)N(CC(=O)Nc2cccc(N[C@H]3CCC(=O)NC3=O)c2)[C@@H](C)C1 [Example 285, 2-((2R,6S)-4-(2-(4-(3-(4-cyano-3-(trifluoromethyl)phenyl)-5,5-dimethyl-4-oxo-2-thioxoimidazolidin-1-yl)-2-ethylphenoxy)ethyl)-2,6-dimethylpiperazin-1-yl)-N-(3-((S)-2,6-dioxopiperidin-3-ylamino)phenyl)acetamide]	* (0<Y<=25%)	< 100
CCc1cc(N2C(=S)N(c3cnc(C#N)c(C(F)(F)F)c3)C(=O)C2(C)C)ccc1OCCN1CCN(CC(=O)Nc2cc(F)cc(NC3CCC(=O)NC3=O)c2)C2(CC2)C1 (stereo not drawn) [Example 110, 2-(7-(2-(4-(3-(6-cyano-5-(trifluoromethyl)pyridin-3-yl)-5,5-dimethyl-4-oxo-2-thioxoimidazolidin-1-yl)-2-ethylphenoxy)ethyl)-4,7-diazaspiro[2.5]octan-4-yl)-N-(3-(2,6-dioxopiperidin-3-ylamino)-5-fluorophenyl)acetamide]	* (0<Y<=25%)	< 100
CCc1cc(N2C(=S)N(c3ccc(C#N)c(C(F)(F)F)c3)C(=O)C2(C)C)ccc1OCCN1C[C@@H](C)N(CC(=O)Nc2cc(C#N)cc(NC3CCC(=O)NC3=O)c2)C[C@H]1C (stereo partly drawn) [Example 181, 2-((2R,5R)-4-(2-(4-(3-(4-cyano-3-(trifluoromethyl)phenyl)-5,5-dimethyl-4-oxo-2-thioxoimidazolidin-1-yl)-2-ethylphenoxy)ethyl)-2,5-dimethylpiperazin-1-yl)-N-(3-cyano-5-(2,6-dioxopiperidin-3-ylamino)phenyl)acetamide]	* (0<Y<=25%)	< 100
CC(F)(F)c1cc(N2C(=S)N(c3cnc(C#N)c(C(F)(F)F)c3)C(=O)C2(C)C)ccc1OCCN1CCN(CC(=O)Nc2cc(F)cc(NC3CCC(=O)NC3=O)c2)CC1 (stereo not drawn) [Example 80, 2-(4-(2-(4-(3-(6-cyano-5-(trifluoromethyl)pyridin-3-yl)-5,5-dimethyl-4-oxo-2-thioxoimidazolidin-1-yl)-2-(1,1-difluoroethyl)phenoxy)ethyl)piperazin-1-yl)-N-(3-(2,6-dioxopiperidin-3-ylamino)-5-fluorophenyl)acetamide]	* (0<Y<=25%)	< 100
CCc1cc(N2C(=S)N(c3ccc(C#N)c(C(F)(F)F)c3)C(=O)C2(C)C)ccc1OCCN1CCN(CC(=O)Nc2cccc(NC3CCC(=O)NC3=O)c2)C(C)(C)C1 (stereo not drawn) [Example 95, 2-(4-(2-(4-(3-(4-cyano-3-(trifluoromethyl)phenyl)-5,5-dimethyl-4-oxo-2-thioxoimidazolidin-1-yl)-2-ethylphenoxy)ethyl)-2,2-dimethylpiperazin-1-yl)-N-(3-(2,6-dioxopiperidin-3-ylamino)phenyl)acetamide]	* (0<Y<=25%)	< 100
CCc1cc(N2C(=S)N(c3cnc(C#N)c(C(F)(F)F)c3)C(=O)C2(C)C)ccc1OCCN1CCN(CC(=O)Nc2cccc(NC3CCC(=O)NC3=O)c2)[C@@H](C(F)(F)F)C1 (stereo partly drawn) [Example 200, 2-((R)-4-(2-(4-(3-(6-cyano-5-(trifluoromethyl)pyridin-3-yl)-5,5-dimethyl-4-oxo-2-thioxoimidazolidin-1-yl)-2-ethylphenoxy)ethyl)-2-(trifluoromethyl)piperazin-1-yl)-N-(3-(2,6-dioxopiperidin-3-ylamino)phenyl)acetamide]	* (0<Y<=25%)	< 100
CC(C)c1cc(N2C(=S)N(c3ccc(C#N)c(C(F)(F)F)c3)C(=O)C23CCC3)cnc1OCCN1C[C@@H](C)N(CC(=O)Nc2cccc(NC3CCC(=O)NC3=O)c2)[C@@H](C)C1 (stereo partly drawn) [Example 227, 2-((2S,6R)-4-(2-(5-(7-(4-cyano-3-(trifluoromethyl)phenyl)-8-oxo-6-thioxo-5,7-diazaspiro[3.4]octan-5-yl)-3-isopropylpyridin-2-yloxy)ethyl)-2,6-dimethylpiperazin-1-yl)-N-(3-(2,6-dioxopiperidin-3-ylamino)phenyl)acetamide]	* (0<Y<=25%)	< 100
